Source: publication PMC10204800 (Frontiers in Pharmacology, 2023)

Molecular target: T1, hDOR (human delta opioid receptor) (Homo sapiens, UniProt P41143)
T1 construct: gene OPRD1; stably transfected in CHO cells (CHO-hDOR); membrane homogenates
Assay type: binding
Conditions: read-out: Ki values (nM) Mean (SEM)

T1 sequence (P41143 whole entry): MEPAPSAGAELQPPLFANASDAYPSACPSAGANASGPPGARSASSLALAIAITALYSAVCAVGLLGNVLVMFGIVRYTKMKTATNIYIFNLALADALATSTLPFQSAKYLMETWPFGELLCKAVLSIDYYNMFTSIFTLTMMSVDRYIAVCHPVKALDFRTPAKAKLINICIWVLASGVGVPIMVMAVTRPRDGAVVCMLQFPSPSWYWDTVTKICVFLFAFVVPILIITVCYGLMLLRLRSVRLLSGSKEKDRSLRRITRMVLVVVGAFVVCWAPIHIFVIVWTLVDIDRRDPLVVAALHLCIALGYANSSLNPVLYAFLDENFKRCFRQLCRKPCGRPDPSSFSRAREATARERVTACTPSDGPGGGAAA

With “(4R,4aS,6R,7R,7aR,12bS)-3-(cyclopropylmethyl-d 2 )-6-(2-hydroxy-3,3-dimethylbutan-2-yl)-7-methoxy-1,2,3,4,5,6,7,7a-octahy dro-4a,7-ethano-4,12-methanobenzofuro[3,2-e]isoquinolin-9-ol [BUP-D2]” the Ki was 0.424 nM.
